Assay results reported in patent US8865750B2, “Small molecule inhibitors of RGS proteins” (The Regents of The University of Michigan, priority 2011, dated 2014).
Like-named read-outs stand apart in the source and are kept apart here.

Tests used:
HEK293 cells = assay: Calcium mobilization induced by compound alone; format: cell-based; conditions: Homo sapiens, HEK293; read-out: Calcium transient (% 50014);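 further: percent of response to 10 µM reference CCG-50014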
Description: (§1) Calcium Mobilization Experiments:
(§2) A stable cell line was developed based upon the HEK-293 Flp-In TREx cell line (Invitrogen, Carlsbad, Calif.) that stably express the muscarinic M3 receptor and have human RGS4 expression under doxycycline control. Cells were maintained in DMEM supplemented with 10% fetal bovine serum and Penicillin (100 units/ml)-Streptomycin (100 μg/ml) under 5% CO2 at 37° C. For experiments, cells were split into 96-well black, clear bottom, poly-D-lysine coated microtiter plates (Nunc, Cat. #152037) at a density of 20,000 cells/well in DMEM containing 10% fetal bovine serum and Penicillin (100 units/ml), Streptomycin (100 μg/ml). RGS4 expression was induced by supplementing the medium with 1 μg/mL doxycycline for 24-48 hours before experimentation. Cells were loaded with Fluo-4 No Wash dye in buffer for 30 minutes at 37° C. Compounds and/or carbachol were added to the wells and the fluorescence intensity was measured using a FlexStation (Molecular Devices, Sunnyvale, Calif.) plate reader. Data analysis was performed by calculating the area under the curve or maximal fluorescence intensity from a 120 second kinetic measurement.

RGS4 [1] = target: RGS4 (Homo sapiens (Human), UniProt P49798); assay: FCPIA: Gαo binding to RGS4; conditions: for RGS4 Hill Slope: Table 3
Description: (§3) FCPIA Dose Response and Reversibility Experiments:

RGS8 = RGS8 (Homo sapiens (Human), UniProt P57771); assay: FCPIA: Gαo binding to RGS8; conditions: for RGS8 Hill Slope: Table 3; for IC50: read-out: RGS8 IC50
Description: as §3

M3 muscarinic receptor = assay: Carbachol-induced Ca2+ response, M3 cells without RGS4 dependence; format: cell-based; conditions: 10 μM (FIG. 20) or as stated
Description: as §1, §2
as §2, with “Calcium signaling transients: A” for “A”, “units/ml)-Streptomycin” for “units/ml), Streptomycin”

RGS4 [2] = assay: FCPIA: Gαo binding to RGS4; conditions: for IC50: read-out: RGS4 IC50; for RGS4 Hill Slope: Table 3
Description: as §3

papain = papain (Carica papaya (Papaya), UniProt P00784); assay: biochemical; format: biochemical
Description: Papain (Sigma-Aldrich, St. Louis, Mo.) activity was monitored by the increase in fluorescence caused by the liberation of fluorescein from autoquenched fluorescein-conjugated casein (AnaSpec, San Jose, Calif.).

[3] = Heart rate and blood pressure in freely-moving rats; format: in vivo; conditions: 0.1 mg/kg intraperitoneal vs saline
Description: The muscarinic agonist carbachol can induce a transient bradycardic effect by activating M2 receptors in the SAN.

[4] = Table 3, duplex FCPIA, average of two experiments
[5] = Table 2, mean of two independent FCPIA experiments

Sequence of RGS8 (P57771 other isoform, or with tags, fused parts or gaps): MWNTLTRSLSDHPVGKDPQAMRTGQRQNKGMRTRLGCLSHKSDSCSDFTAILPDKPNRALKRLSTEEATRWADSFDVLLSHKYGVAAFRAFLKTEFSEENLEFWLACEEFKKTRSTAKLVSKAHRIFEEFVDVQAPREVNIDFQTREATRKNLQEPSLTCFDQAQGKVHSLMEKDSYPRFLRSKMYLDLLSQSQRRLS
Sequence of RGS4 (Homo sapiens (Human), UniProt P49798) (P49798 whole entry, looked up): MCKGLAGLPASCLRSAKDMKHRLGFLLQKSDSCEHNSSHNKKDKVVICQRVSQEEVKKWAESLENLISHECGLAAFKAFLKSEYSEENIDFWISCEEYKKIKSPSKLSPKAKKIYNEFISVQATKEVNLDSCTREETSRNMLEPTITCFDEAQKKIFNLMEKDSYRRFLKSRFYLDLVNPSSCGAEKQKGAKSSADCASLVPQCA
Sequence of papain (P00784 134-345): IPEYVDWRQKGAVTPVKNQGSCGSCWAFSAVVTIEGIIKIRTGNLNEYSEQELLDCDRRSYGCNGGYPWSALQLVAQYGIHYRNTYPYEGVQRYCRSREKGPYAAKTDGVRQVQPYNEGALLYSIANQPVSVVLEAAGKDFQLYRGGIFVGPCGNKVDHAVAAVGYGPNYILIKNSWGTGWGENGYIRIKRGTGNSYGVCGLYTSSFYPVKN

Cc1cccc(-n2sc(=O)n(Cc3ccccc3)c2=O)c1 [CCG-203785, 2-(3-methylphenyl)-4-benzyl-1,2,4-thiadiazolidine-3,5-dione]
Emax at 10 µM (HEK293 cells): 145%
Fold Selectivity (R8/R4) (RGS4 [1]): 561
Fold Selectivity (RGS8 IC50/ RGS4 IC50) (RGS4 [1]): 561
Selectivity RGS4/ RGS8 (RGS4 [1]): 558
RGS4 Hill Slope (RGS4 [1]): −1.13
IC50 (RGS4 [1]; [4]): 0.038 µM
RGS8 Hill Slope (RGS8): −0.73
IC50 (RGS8; [4]): 21.3 µM

O=c1sn(-c2ccc(Cl)cc2)c(=O)n1Cc1ccc(F)cc1 [CCG-203727, 2-(4-chlorophenyl)-4-(4-fluorobenzyl)-1,2,4-thiadiazolidine-3,5-dione]
Emax at 10 µM (HEK293 cells): 158%
Fold Selectivity (R8/R4) (RGS4 [1]): 543
Fold Selectivity (RGS8 IC50/ RGS4 IC50) (RGS4 [1]): 543
Selectivity RGS4/ RGS8 (RGS4 [1]): 564
RGS4 Hill Slope (RGS4 [1]): −1.66
IC50 (RGS4 [1]; [4]): 0.014 µM
RGS8 Hill Slope (RGS8): −1.06
IC50 (RGS8; [4]): 7.6 µM

CCn1sc(=O)n(CCOC)c1=O [CCG-203920, 2-ethyl-4-(2-methoxyethyl)-1,2,4-thiadiazolidine-3,5-dione]
effect on carbachol-induced Ca2+ response (RGS-independent) (M3 muscarinic receptor): no effect
IC50 (RGS4 [2]; Table 6, FCPIA): 0.0543 µM
IC50 (RGS8; Table 6, FCPIA): 36.1 µM

CCN1C(=O)C=CC1=O [N-ethyl maleimide, reference compound]
effect on RGS8 (RGS8; FCPIA): no effect
inhibition of papain by general cysteine alkylators (papain): no effect

O=C1C=C(Br)C(=O)N1Cc1ccccc1 [CCG-203780]
IC50 (RGS4 [1]; [5]): 32 µM
IC50 (RGS8; [5]): > 100 µM

Cc1ccc(-n2sc(=O)n(Cc3ccccc3)c2=O)cc1 [CCG-203724, 2-p-tolyl-4-benzyl-1,2,4-thiadiazolidine-3,5-dione]
Emax at 10 µM (HEK293 cells): 177%
Fold Selectivity (R8/R4) (RGS4 [1]): 536
Fold Selectivity (RGS8 IC50/ RGS4 IC50) (RGS4 [1]): 536
Selectivity RGS4/ RGS8 (RGS4 [1]): 519
RGS4 Hill Slope (RGS4 [1]): −3.63
IC50 (RGS4 [1]; [4]): 0.014 µM
RGS8 Hill Slope (RGS8): −0.94
IC50 (RGS8; Table 6, FCPIA): 7.5 µM

C[N+](C)(C)CCOC(N)=O [carbachol, reference compound]
heart rate after carbachol [3]: significant decrease in heart rate

CCCCn1sc(=O)n(CC(C)C)c1=O [CCG-203764, 2-butyl-4-isobutyl-1,2,4-thiadiazolidine-3,5-dione]
Emax at 10 µM (HEK293 cells): 142%
Fold Selectivity (R8/R4) (RGS4 [1]): 2513
Fold Selectivity (RGS8 IC50/ RGS4 IC50) (RGS4 [1]): 2513
Selectivity RGS4/ RGS8 (RGS4 [1]): 2540
RGS4 Hill Slope (RGS4 [1]): −0.87
IC50 (RGS4 [1]; [4]): 0.039 µM
RGS8 Hill Slope (RGS8): −0.44
IC50 (RGS8; Table 6, FCPIA): 98 µM

NC(=O)CI [iodoacetamide, reference compound]
effect on Gα0 binding to the RGS proteins tested (RGS4 [1]; FCPIA): no effect
inhibition of papain by general cysteine alkylators (papain): dose-dependent

CC(C)Cn1c(=O)sn(C(C)(C)C)c1=O [CCG-203763, 2-t-butyl-4-isobutyl-1,2,4-thiadiazolidine-3,5-dione]
Emax at 10 µM (HEK293 cells): 73.5%
RGS4 Hill Slope (RGS4 [2]): −0.85
IC50 (RGS4 [2]; [4]): 0.029 µM
RGS8 Hill Slope (RGS8): −0.52
IC50 (RGS8; [4]): 194 µM

CCCCn1c(=O)sn(-c2ccc(C)cc2)c1=O [CCG-203767, 2-p-tolyl-4-butyl-1,2,4-thiadiazolidine-3,5-dione]
Emax at 10 µM (HEK293 cells): 123%
RGS4 Hill Slope (RGS4 [2]): −1.46
IC50 (RGS4 [2]; [4]): 0.02 µM
RGS8 Hill Slope (RGS8): −0.96
IC50 (RGS8; Table 6, FCPIA): 9.5 µM

Cc1ccc(-n2sc(=O)n(Cc3ccc(Cl)c(Cl)c3)c2=O)cc1 [CCG-203743, 2-p-tolyl-4-(3,4-dichlorobenzyl)-1,2,4-thiadiazolidine-3,5-dione]
Emax at 10 µM (HEK293 cells): 45.6%
RGS4 Hill Slope (RGS4 [2]): −1.43
IC50 (RGS4 [2]; [4]): 0.034 µM
RGS8 Hill Slope (RGS8): −0.65
IC50 (RGS8; [4]): 15.7 µM

O=C1C=C(Br)C(=O)N1Cc1ccccc1 [S37, 1-benzyl-3-bromo-1H-pyrrole-2,5-dione]
IC50 (RGS4 [1]; Table 6, FCPIA): 32.9 µM
IC50 (RGS8; Table 6, FCPIA): 144 µM

Cc1cccc(-n2sc(=O)n(Cc3cccc(Cl)c3)c2=O)c1 [S16, 2-m-tolyl-4-(3-chlorobenzyl)-1,2,4-thiadiazolidine-3,5-dione]
Emax at 10 µM (HEK293 cells): 142%
RGS4 Hill Slope (RGS4 [2]): −1.52
RGS8 Hill Slope (RGS8): −0.95
IC50 (RGS8; [4]): 10.1 µM
IC50 (RGS8; Table 6, FCPIA): 10.1 µM

Cc1ccc(-n2sc(=O)n(C)c2=O)cc1 [CCG-203759, 2-p-tolyl-4-methyl-1,2,4-thiadiazolidine-3,5-dione]
Emax at 10 µM (HEK293 cells): 238%
RGS4 Hill Slope (RGS4 [2]): −1.56
IC50 (RGS4 [2]; [4]): 0.019 µM
RGS8 Hill Slope (RGS8): −1.06
IC50 (RGS8; Table 6, FCPIA): 8.4 µM

Cc1ccc(Cn2c(=O)sn(-c3ccccc3)c2=O)cc1 [S9, 2-phenyl-4-(4-methylbenzyl)-1,2,4-thiadiazolidine-3,5-dione]
Emax at 10 µM (HEK293 cells): 12.2%
RGS4 Hill Slope (RGS4 [2]): −1.50
RGS8 Hill Slope (RGS8): −0.87
IC50 (RGS8; [4]): 8.3 µM
IC50 (RGS8; Table 6, FCPIA): 8.3 µM

Cc1ccc(-n2sc(=O)n(Cc3ccc(Cl)cc3)c2=O)cc1 [CCG-203731, 2-p-tolyl-4-(4-chlorobenzyl)-1,2,4-thiadiazolidine-3,5-dione]
Emax at 10 µM (HEK293 cells): -2.6%
RGS4 Hill Slope (RGS4 [2]): −0.70
IC50 (RGS4 [2]; Table 6, FCPIA): 0.0054 µM
RGS8 Hill Slope (RGS8): −1.50
IC50 (RGS8; Table 6, FCPIA): 11.8 µM

CCCCn1sc(=O)n(Cc2ccc(F)cc2)c1=O [CCG-203765, 2-butyl-4-(4-fluorobenzyl)-1,2,4-thiadiazolidine-3,5-dione]
Emax at 10 µM (HEK293 cells): 184%
RGS4 Hill Slope (RGS4 [2]): −0.81
IC50 (RGS4 [2]; [4]): 0.016 µM
RGS8 Hill Slope (RGS8): −0.59
IC50 (RGS8; [4]): 31.6 µM

Cc1ccc(-n2sc(=O)n(Cc3ccc(C(C)(C)C)cc3)c2=O)cc1 [S34, 2-p-tolyl-4-(4-t-butylbenzyl)-1,2,4-thiadiazolidine-3,5-dione]
Emax at 10 µM (HEK293 cells): 18.9%
RGS4 Hill Slope (RGS4 [2]): −1.36
IC50 (RGS8; [4]): > 100 µM
IC50 (RGS8; Table 6, FCPIA): > 100 µM

COc1ccc(Cn2c(=O)sn(-c3ccc(OC)cc3)c2=O)cc1 [S26, 2-(4-methoxyphenyl)-4-(4-methoxybenzyl)-1,2,4-thiadiazolidine-3,5-dione]
Emax at 10 µM (HEK293 cells): 54.9%
RGS4 Hill Slope (RGS4 [2]): −1.27
RGS8 Hill Slope (RGS8): −0.81
IC50 (RGS8; [4]): 17.6 µM
IC50 (RGS8; Table 6, FCPIA): 17.6 µM

O=c1sn(-c2ccccc2)c(=O)n1Cc1ccc(Cl)c(Cl)c1 [S29, 2-phenyl-4-(3,4-dichlorobenzyl)-1,2,4-thiadiazolidine-3,5-dione]
Emax at 10 µM (HEK293 cells): 47.6%
RGS4 Hill Slope (RGS4 [2]): −0.96
RGS8 Hill Slope (RGS8): −0.80
IC50 (RGS8; [4]): 7.5 µM
IC50 (RGS8; Table 6, FCPIA): 7.5 µM

COc1ccc(-n2sc(=O)n(Cc3ccc(F)cc3)c2=O)cc1 [CCG-203735, 2-(4-methoxyphenyl)-4-(4-fluorobenzyl)-1,2,4-thiadiazolidine-3,5-dione]
Emax at 10 µM (HEK293 cells): 6.2%
RGS4 Hill Slope (RGS4 [2]): −1.33
IC50 (RGS4 [2]; [4]): 0.011 µM
RGS8 Hill Slope (RGS8): −1.27
IC50 (RGS8; Table 6, FCPIA): 11.4 µM

O=c1sn(-c2ccccc2)c(=O)n1Cc1ccccc1 [CCG-203722, 2-phenyl-4-benzyl-1,2,4-thiadiazoline-3,5-dione]
Emax at 10 µM (HEK293 cells): 3.8%
RGS4 Hill Slope (RGS4 [2]): −1.89
IC50 (RGS4 [2]; [4]): 0.024 µM
RGS8 Hill Slope (RGS8): −0.80
IC50 (RGS8; Table 6, FCPIA): 5.6 µM

CCCCn1sc(=O)n(CCCC)c1=O [CCG-203770, 2,4-dibutyl-1,2,4-thiadiazolidine-3,5-dione]
Emax at 10 µM (HEK293 cells): 188%
RGS4 Hill Slope (RGS4 [2]): −0.83
IC50 (RGS4 [2]; [4]): 0.03 µM
RGS8 Hill Slope (RGS8): −0.53
IC50 (RGS8; [4]): 122 µM
